Source: US20100144660A1, “USE OF N,N-DIETHYL-2-[-4-(PHENYLMETHYL)-PHENOXY]ETHANAMINE MONOHYDROCHLORIDE (DPPE) IN CANCER THEREAPY” (YM Biosciences Inc., priority 2001, published 2010)
Like-named read-outs stand apart in the source and are kept apart here.

Key:
[1] = competition assays; cited from earlier work
[2] = tested on: breast cancer patients who relapsed following surgery; experiment: Phase III clinical trial: DPPE and doxorubicin versus doxorubicin alone, survival analysis by subgroup; type: in vivo, human; conditions: for 1 yr (one year survival) / MST (median survival time): only ER known; for median survival time (MST) / one year survival: duration 6-36 month, prior chemotherapy group (FIG. 27), DPPE added to doxorubicin versus doxorubicin alone
Experimental: Two arms of treatment were involved in this trial. Patients were randomly selected to participate in either arm. In one arm, patients were treated with DPPE and doxorubicin, in the other arm patients were treated with doxorubicin alone.
In the trial, patients were permitted to stay on doxorubicin for a maximum of about 7 cycles (5 months). […] DPPE was administered to patients in the amount of 6 mg/kg (or 240 mg/M^2) over 80 minutes, with the concurrent administration of doxorubicin over the last 20 minutes at a […] of 60-90 mg/M^2.
The patients in the trial were assigned to subgroups based on duration, i.e. the length of time between the initial diagnosis of breast cancer and the appearance of advanced disease. The subgroups were: (i) less than or equal to 6 months, (ii) between 6 months and 36 months and (iii) more than 36 months.
For this subgroup analysis, the 3 duration subgroups (<6 m, 6-36 m and >36 m) are further subdivided into groups of patients that (i) have undergone prior chemotherapy, and (ii) have not undergone prior chemotherapy.
For this analysis, the patients in the trial were divided into subgroups based on Eastern Cooperative Oncology Group (ECOG) Performance Status (PS).
In this example, the patients were divided into subgroups of those patients that originated from Eastern Europe and those that originated mainly from Western Europe and North America.

[3] = tested on: MCF-7 breast cancer cells; conditions: ER−/AEBS+ or ER+/AEBS+ cells; cited from earlier work
[4] = tested on: normal and malignant cells; conditions: cited from earlier work
[5] = tested on: intracellular histamine receptors; conditions: cited from earlier work
[6] = tested on: hormone-unresponsive metastatic prostate cancer; conditions: intravenous infusion of DPPE over approximately one hour prior to cyclophosphamide; cited from earlier work
[7] = cited from earlier work
[8] = Geographically restricted subset
[9] = Geographically restricted subset (Eastern Europe excluded)
[10] = duration <36 m, ER+ (known ER status)
[11] = duration <36 m, ER− (known ER status)
[12] = duration >36 M, ER+ (known ER status)
[13] = duration >36 m, ER− (known ER status)
[14] = response PD (progressive disease)

In the case of `CCN(CC)CCOc1ccc(C(=O)c2ccc(F)cc2)cc1` [DFPE, N,N-diethyl-2-[4-(4′-fluorophenone)-phenoxy]ethanamine], the “potency compared to DPPE” value [1] is given as “greater potency”.
Work on `COc1cccc2c1C(=O)c1c(O)c3c(c(O)c1C2=O)C[C@@](O)(C(=O)CO)C[C@@H]3O[C@H]1C[C@H](N)[C@H](O)[C@H](C)O1` [DOX, doxorubicin] yielded a 1 yr survival ([2]; ECOG PS 0) of 75%, an MST ([2]; ECOG PS 0) of 20.3 m and a 1 yr survival ([2]; ECOG PS 1) of 48%. The MST ([2]; ECOG PS 1) was 11.7 m, the 1 yr survival ([2]; ECOG PS 2) was 33% and the MST ([2]; ECOG PS 2) was 5.9 m. For the same compound, the “1 yr (one year survival)” value ([2]; ER+ patients) was 62%, the “MST (median survival time)” value ([2]; ER+ patients) was 16.5 m and the “1 yr (one year survival)” value ([2]; ER− patients) was 36%. The “MST (median survival time)” value ([2]; ER− patients) was 9.5 m, the “Survival by ECOG = 0, 1 yr” value [2, 8] was 63% and the “Survival by ECOG = 0, MST” value [2, 8] was 16.5 m. The “Survival by ECOG = 1, 1 yr” value [2, 8] was 42%, the “Survival by ECOG = 1, MST” value [2, 8] was 11.5 m and the “Survival by ER status ER−, 1 yr” value [2, 8] was 39%. For the same compound, the “Survival by ER status ER−, MST” value [2, 8] was 9 m, the “Survival by ER+, 1 yr” value [2, 8] was 55% and the “Survival by ER+, MST” value [2, 8] was 15.5 m. For the same compound, the “Survival by duration: 6-36 m, MST” value [2, 8] was 9 m, the “Survival by response: CR/PR, 1 yr” value [2, 8] was 62% and the “Survival by response: SD, 1 yr” value [2, 8] was 53%. For the same compound, the “Survival by response: SD, MST” value [2, 8] was 12 m, the “Survival for ER+ vs ER− within the arm” value [2, 8] was “ER+ considerably better than ER−” and the “Overall survival 1 yr” value [2, 9] was 50%. For the same compound, the “Overall survival MST” value [2, 9] was 12 m, the “Overall survival 1 yr” value ([2]; Whole trial (Table 10)) was 60% and the “Overall survival MST” value ([2]; Whole trial (Table 10)) was 15.6 m. The “Survival by ECOG = 0, 1 yr” value ([2]; Whole trial (Table 10)) was 75%, the “Survival by ECOG = 0, MST” value ([2]; Whole trial (Table 10)) was 20.3 m and the “Survival by ECOG = 1, 1 yr” value ([2]; Whole trial (Table 10)) was 48%. The “Survival by ECOG = 1, MST” value ([2]; Whole trial (Table 10)) was 11.7 m, the “Survival by ER status ER−, 1 yr” value ([2]; Whole trial (Table 10)) was 36% and the “Survival by ER status ER−, MST” value ([2]; Whole trial (Table 10)) was 9.5 m. For the same compound, the “Survival by ER+, 1 yr” value ([2]; Whole trial (Table 10)) was 62%, the “Survival by ER+, MST” value ([2]; Whole trial (Table 10)) was 16 m and the “Survival by duration: 6-36 m, MST” value ([2]; Whole trial (Table 10)) was 11.5 m. The “Survival by response: CR/PR, 1 yr” value ([2]; Whole trial (Table 10)) was 74%, the “Survival by response: SD, 1 yr” value ([2]; Whole trial (Table 10)) was 59% and the “Survival by response: SD, MST” value ([2]; Whole trial (Table 10)) was 17 m. For the same compound, the “Survival for ER+ vs ER− within the arm” value ([2]; Whole trial (Table 10)) was “ER+ considerably better than ER−”, the “lived on average (survival)” value ([2]; all breast cancer patients of the trial) was “fifteen” and the “median survival time (MST)” value [2] was 10.7 months. The one year survival [2] was 40%, the 1 yr survival ([2]; duration <6 m) was 56% and the MST ([2]; duration <6 m) was 15 m. It also gave a 1 yr survival [2, 10] of 52%, an MST [2, 10] of 15.5 m and a 1 yr survival [2, 11] of 36%. The MST [2, 11] was 9.5 m, the 1 yr survival ([2]; duration >6 but <36 m) was 45% and the MST ([2]; duration >6 but <36 m) was 11.5 m. For the same compound, the 1 yr survival [2, 12] was 82%, the MST [2, 12] was 18 m and the 1 yr survival ([2]; duration >36 m) was 77%. The MST ([2]; duration >36 m) was 20.3 m, the 1 yr survival [2, 13] was 66% and the MST [2, 13] was 12 m. For the same compound, the “median survival time (FIG. 22)” value ([2]; duration >36 months) was 28.6356, the “median survival time (FIG. 21)” value ([2]; duration of ≦36 months) was 12.1973 and the 1 yr survival ([2]; response CR/PR) was 74%. It also gave an MST ([2]; response CR/PR) of 28.5 m, a 1 yr survival [2, 14] of 34% and an MST [2, 14] of 10.5 m. For the same compound, the 1 yr survival ([2]; response SD (stable disease)) was 59% and the MST ([2]; response SD (stable disease)) was 17 m.
With `CCN(CC)CCOc1ccc(Cc2ccccc2)cc1.Cl` [DPPE, N,N-diethyl-2-[-4-(phenylmethyl)-phenoxy]ethanamine monohydrochloride] the “Survival by response: PD, comparison of arms” value ([2]; Geographically restricted subset, DPPE/DOX versus DOX) was “DPPE a little better at first”, the “survival benefit from the addition of DPPE” value ([2]; duration 6-36 m, no prior chemotherapy group) was “little, if any, benefit” and the “median survival time (MST)” value [2] was over 17.5 months. The one year survival [2] was “under 70%”, the “survival benefit from the addition of DPPE” value ([2]; duration >36 m, prior and no prior chemotherapy subgroups) was “neither of the subgroups show any benefit” and the “in vitro growth of MCF-7 breast cancer cells” value [3] was “inhibit”. The “cell proliferation in vivo” value ([4]; animal model) was “inhibit normal cell proliferation while promoting malignant cell proliferation”, the “interaction with doxorubicin (Adriamycin)” value ([4]; tumour-bearing animals treated concurrently with DPPE) was “act synergistically” and the “antagonism of intracellular histamine receptors” value [5] was “potent antagonist”. For the same compound, the “effect on anti-cancer activity and toxicity of cyclophosphamide” value [6] was “potentiate the anti-cancer activity and ameliorate the toxicity”, the toxicity ([7]; 4 mg/kg (160 mg/M^2) over 1 hour intravenously) was “non-toxic” and the clinical side effects ([7]; 8 mg/M^2 over 24 to 72 hours) was “do not result in clinical side effects”. The toxicity ([7]; 240 mg/M^2 over 1 hour) was “may result in CNS toxicity”.
